Measured values published in article PMC10539501 (Nature Communications, 2023).
Starred links: 1 amine or outer side, 2 acyl side, 3 side chain; linkers in the order of their positions; H or OH if unused. Non-standard residues stand in square brackets, D forms with d. Residues, ends and D or L forms follow the SMILES beside them. X2 = CC(C)C[C@H](NC(=S)[C@@H](CC(C)C)N[*:1])C(=O)[*:2]; X3 = CC(C)C[C@H](N[*:1])C(=S)N[C@H](CC(C)C)C(=O)[*:2]; X4 = CC(C)C[C@H](N[*:1])C(=S)N1CCC[C@@H]1C(=O)[*:2]; X16 = CC(C)C[C@H](N[*:1])C(=S)N[C@H](C)C(=O)[*:2]; NMeL = CN[C@@H](CC(C)C)C(=O)O

Assays:
[1] = format: physicochemical
[2] = PAMPA passive permeability; format: in vitro ADME;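 note: passive permeability across an artificial membrane in 96-well pre-coated PAMPA plates, which lack transporters and efflux systems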
[3] = format: physicochemical; remark: listed apart in the source
in vitro [4] = format: in vitro ADME, human
Caco-2 cells = test: in vitro; format: in vitro ADME, human; conditions: Caco-2
[5] = rat, in vivo, po, 10 mg/kg
in vivo = conditions: male, Wistar, rat
physchem = conditions: pH 7.4
in vitro [6] = conditions: both, human, plasma
pepsin = pepsin (Sus scrofa, UniProt P00791); test: in vitro; conditions: simulated gastric fluid, pH 1.2
Sequence of pepsin (P00791 60-385): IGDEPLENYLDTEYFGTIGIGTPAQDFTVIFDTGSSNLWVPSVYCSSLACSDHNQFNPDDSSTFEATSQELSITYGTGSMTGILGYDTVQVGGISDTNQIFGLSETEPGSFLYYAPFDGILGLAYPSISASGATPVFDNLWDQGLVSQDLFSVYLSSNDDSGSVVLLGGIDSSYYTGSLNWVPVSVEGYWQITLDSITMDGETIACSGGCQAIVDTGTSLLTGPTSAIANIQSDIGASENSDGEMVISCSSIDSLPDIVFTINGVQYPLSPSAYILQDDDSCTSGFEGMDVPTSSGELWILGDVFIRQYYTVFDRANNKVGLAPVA

in vitro [7] = conditions: pig, simulated intestinal fluid
in vitro [8] = conditions: human, microsomes
in vitro [9] = conditions: both, human, plasma; remark: listed apart in the source
[10] = Retention in hydrophobic C18 column by HPLC; conditions: Supplementary Fig 3d, logD7.4 vs tR
[11] = HDX of amide protons by NMR in DMSO-d6:D2O (8:2); conditions: HDX by NMR, 20% D2O in DMSO-d6
[12] = HDX of amide protons by NMR in CDCl3:CD3OD (8:2)
[13] = 20% CD3OD in CDCl3, % remaining after 24 hours
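Throughout, for Papp A-B avg (second block): Caco-2 monolayers used 21 days after seeding in HBSS-HEPES buffer with 1% DMSO, donor and acceptor levels quantified by LC-MS/MS, TEER checked before and after.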
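Throughout, for Papp A-B set 1 (second block): Caco-2 monolayers used 21 days after seeding in HBSS-HEPES buffer with 1% DMSO, donor and acceptor levels quantified by LC-MS/MS, TEER checked before and after.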
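Throughout, for Papp A-B set 2 (second block): Caco-2 monolayers used 21 days after seeding in HBSS-HEPES buffer with 1% DMSO, donor and acceptor levels quantified by LC-MS/MS, TEER checked before and after.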
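Throughout, for Papp B-A avg (second block): Caco-2 monolayers used 21 days after seeding in HBSS-HEPES buffer with 1% DMSO, donor and acceptor levels quantified by LC-MS/MS, TEER checked before and after.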

CC(C)C[C@@H]1NC(=O)[C@H](Cc2ccc(O)cc2)NC(=O)[C@H]2CCCN2C(=O)[C@H](CC(C)C)NC(=O)[C@H](CC(C)C)NC(=S)[C@@H](CC(C)C)NC1=O [10a] (cyclo(L[dP]YL[X2]))
% solubility [1]: 58% | Pe set1 [2]: 8.08 ×10⁻⁶ cm/s | Pe set2 [2]: 12.5 ×10⁻⁶ cm/s | Pe set3 [2]: 11.81 ×10⁻⁶ cm/s | Papp ([2]; Pe Avg): 10.8 ×10⁻⁶ cm/s | logD heptane ethylene glycol [3]: 0.97 | Papp A→B (in vitro [4]; Caco-2, Papp A-B + Elacridar avg): 13 ×10⁻⁶ cm/s | Papp A→B (in vitro [4]; Caco-2, Papp A-B avg): 3.25 ×10⁻⁶ cm/s | Papp B→A (in vitro [4]; Caco-2, Papp B-A + Elacridar avg): 16.9 ×10⁻⁶ cm/s | Papp B→A (in vitro [4]; Caco-2, Papp B-A avg): 75.4 ×10⁻⁶ cm/s | Papp A-B avg (second block) (Caco-2 cells): 3.25 ×10⁻⁶ cm/s | Papp A-B set 1 (second block) (Caco-2 cells): 3.14 ×10⁻⁶ cm/s | Papp A-B set 2 (second block) (Caco-2 cells): 3.36 ×10⁻⁶ cm/s | Papp B-A avg (second block) (Caco-2 cells): 75.4 ×10⁻⁶ cm/s | Papp B-A set 1 (second block) (Caco-2 cells): 77.4 ×10⁻⁶ cm/s | Papp B-A set 2 (second block) (Caco-2 cells): 73.3 ×10⁻⁶ cm/s | Half lives (human liver microsomes): 46.9 | AUClast p.o [5]: 26.9 ng·h/mL | time over which the peptide is detectable in plasma [5]: ≥ 8 h | AUC(0-t) (in vivo; iv): 146 ng·h/mL | Cmax (in vivo; iv): 48.1 ng/mL | MRT (in vivo; iv): 2.8 h | Vd (in vivo; iv): 28.6 L/kg | clearance (in vivo; iv): 91.1 mL/min/kg | bioavailability (in vivo; po): 1.8% | AUC(0-t) (in vivo; po, 10 mg/kg): 26.9 ng·h/mL | Cmax (in vivo; po, 10 mg/kg): 15 ng/mL | MRT (in vivo; po, 10 mg/kg): 2 h | level at 3 h (in vivo; po, 10 mg/kg): 3 ng/mL | logD (physchem): 1.21 | fraction unbound (in vitro [6]): 0.28 | half-life (pepsin): 0.7 h | remaining at 5 min (pepsin): 83% | remaining at 10 min (pepsin): 74% | remaining at 20 min (pepsin): 63% | remaining at 0.5 h (pepsin): 56% | remaining at 1 h (pepsin): 42% | remaining at 2 h (pepsin): 34% | remaining at 4 h (pepsin): 31% | remaining at 8 h (pepsin): 19% | remaining at 12 h (pepsin): 11% | remaining at 24 h (pepsin): 7% | half-life (in vitro [7]): 2.45 h | remaining at 10 min (in vitro [7]): 78.4% | remaining at 0.5 h (in vitro [7]): 66% | remaining at 1 h (in vitro [7]): 55.9% | remaining at 2 h (in vitro [7]): 49.2% | remaining at 4 h (in vitro [7]): 34% | remaining at 8 h (in vitro [7]): 26.3% | remaining at 12 h (in vitro [7]): 18.8% | remaining at 24 h (in vitro [7]): 11% | microsomal CLint (in vitro [8]): 29.5 µL/min/mg | remaining at 5 min (in vitro [8]): 75% | remaining at 10 min (in vitro [8]): 65% | remaining at 20 min (in vitro [8]): 64% | remaining at 0.5 h (in vitro [8]): 58% | remaining at 0.75 h (in vitro [8]): 52% | remaining at 1 h (in vitro [8]): 44% | half-life (in vitro [9]): 22 h | remaining at 1 h (in vitro [9]): 94% | remaining at 3 h (in vitro [9]): 84% | remaining at 5 h (in vitro [9]): 78% | remaining at 7 h (in vitro [9]): 72% | remaining at 9 h (in vitro [9]): 66% | remaining at 12 h (in vitro [9]): 56% | remaining at 24 h (in vitro [9]): 45% | remaining at 36 h (in vitro [9]): 33% | remaining at 48 h (in vitro [9]): 23% | remaining at 60 h (in vitro [9]): 22% | remaining at 72 h (in vitro [9]): 21% | tR [10]: 10.8 min | Half-life of D-Leu1 amide proton (HDX) [11]: 2.83 h | Half-life of Leu2 amide proton (HDX) [11]: 1.83 h | Half-life of Leu3 amide proton (HDX) [11]: 12 h | Half-life of Leu6 amide proton (HDX) [11]: 13.3 h | Half-life of Tyr5 amide proton (HDX) [11]: 0.838 h | Half-life of D-Leu1 amide proton (HDX) ([12]; 20% CD3OD in CDCl3): 19.25 h | Half-life of Leu2 amide proton (HDX) ([12]; 20% CD3OD in CDCl3): 0.333 h | Half-life of Leu3 amide proton (HDX) ([12]; 20% CD3OD in CDCl3): > 24 h | Half-life of Leu6 amide proton (HDX) ([12]; 20% CD3OD in CDCl3): > 24 h | Half-life of Tyr5 amide proton (HDX) ([12]; 20% CD3OD in CDCl3): > 24 h | % intact NH, Leu3 [12, 13]: 80% | % intact NH, Leu6 [12, 13]: 89% | % intact NH, Tyr5 [12, 13]: 80%

CC[C@H](C)[C@@H]1NC(=O)[C@@H]2CCCN2C(=O)[C@H]([C@@H](C)CC)NC(=O)[C@@H]2CCCN2C(=O)[C@H](Cc2ccccc2)NC(=O)[C@H](C)NC(=O)[C@H](C)NC1=O [compound 11, cyclo(-Ile^1-Ala-Ala-Phe-Pro-Ile-Pro^7-)] (cyclo(AAFPIPI))
% solubility [1]: 95% | Papp ([2]; Pe (PAMPA vs logD7.4)): 0.41 ×10⁻⁶ cm/s | Papp ([2]; Pe Avg): 0.4 ×10⁻⁶ cm/s | logD (physchem): 0.1 | tR [10]: 5.299 min

CC(C)C[C@@H]1NC(=O)[C@@H](CC(C)C)NC(=O)[C@H]2CCCN2C(=S)[C@H](CC(C)C)NC(=O)[C@@H](CC(C)C)NC(=O)[C@H](CC(C)C)NC(=O)[C@@H]2CCCN2C(=O)[C@@H](C)NC1=O [12b] (cyclo(L[dL][X4][dL]L[dA]P))
% solubility [1]: 49% | Papp ([2]; Pe Avg): 2.6 ×10⁻⁶ cm/s | logD (physchem): 1.61 | tR [10]: 15.5 min

CC(C)C[C@@H]1NC(=O)[C@@H](CC(C)C)NC(=O)[C@H]2CCCN2C(=O)[C@H](CC(C)C)NC(=O)[C@@H](CC(C)C)NC(=S)[C@H](CC(C)C)NC(=O)[C@@H]2CCCN2C(=O)[C@@H](C)NC1=O [12h] (cyclo([X3]L[dP][dL]L[dA]P))
% solubility [1]: 40% | Papp ([2]; Pe Avg): 7.7 ×10⁻⁶ cm/s | logD (physchem): 1.49 | tR [10]: 16.4 min

CC(C)C[C@@H]1NC(=O)[C@@H]2CCCN2C(=O)[C@@H](C)NC(=S)[C@H](CC(C)C)NC(=O)[C@@H](CC(C)C)NC(=O)[C@H]2CCCN2C(=O)[C@H](CC(C)C)NC(=O)[C@@H](CC(C)C)NC1=O [12e] (cyclo([dL]L[dP][dL][X16]PL))
% solubility [1]: 41% | Papp ([2]; Pe Avg): 5.7 ×10⁻⁶ cm/s | logD (physchem): 1.37 | tR [10]: 15 min

CC(C)C[C@@H]1NC(=O)[C@@H](CC(C)C)NC(=O)[C@H]2CCCN2C(=O)[C@H](CC(C)C)NC(=O)[C@@H](CC(C)C)NC(=O)[C@H](CC(C)C)NC(=O)[C@@H]2CCCN2C(=O)[C@@H](C)NC1=O [compound 12, cyclo(-D-Leu^1-Leu-D-Pro-D-Leu-Leu-D-Ala-Pro-Leu^8-)] (cyclo(L[dA]PL[dL]L[dP][dL]))
% solubility [1]: 94% | Papp ([2]; Pe Avg): 3 ×10⁻⁶ cm/s | logD (physchem): 0.75 | tR [10]: 12.6 min

CC(C)C[C@@H]1NC(=O)[C@@H](CC(C)C)NC(=O)[C@H](CC(C)C)N(C)C(=O)[C@H](Cc2ccc(O)cc2)NC(=O)[C@H]2CCCN2C(=O)[C@H](CC(C)C)NC1=O [10k] (cyclo(LL[dP]Y[NMeL][dL]))
Papp ([2]; Pe Avg): 6.13 ×10⁻⁶ cm/s | Half lives (human liver microsomes): 10.3 | Fold Change of AUClast p.o [5]: 393 | AUC(0-t) (in vivo; iv): 510 ng·h/mL | Cmax (in vivo; iv): 1170 ng/mL | MRT (in vivo; iv): 0.4 h | Vd (in vivo; iv): 0.8 L/kg | clearance (in vivo; iv): 33.3 mL/min/kg | bioavailability (in vivo; po): 6.8% | AUC(0-t) (in vivo; po, 10 mg/kg): 345 ng·h/mL | Cmax (in vivo; po, 10 mg/kg): 55.9 ng/mL | MRT (in vivo; po, 10 mg/kg): 9 h | level at 3 h (in vivo; po, 10 mg/kg): 26.6 ng/mL | logD (physchem): 1.2 | fraction unbound (in vitro [6]): 0.53 | half-life (pepsin): 1.75 h | remaining at 2 min (pepsin): 97% | remaining at 10 min (pepsin): 84% | remaining at 20 min (pepsin): 77% | remaining at 0.5 h (pepsin): 71% | remaining at 1 h (pepsin): 65% | remaining at 2 h (pepsin): 46% | remaining at 4 h (pepsin): 19% | remaining at 8 h (pepsin): 11% | remaining at 12 h (pepsin): 7% | half-life (in vitro [7]): 1.55 h | remaining at 10 min (in vitro [7]): 88% | remaining at 0.5 h (in vitro [7]): 75% | remaining at 1 h (in vitro [7]): 62% | remaining at 2 h (in vitro [7]): 39% | remaining at 4 h (in vitro [7]): 30% | remaining at 8 h (in vitro [7]): 6% | remaining at 12 h (in vitro [7]): 3% | microsomal CLint (in vitro [8]): 144 µL/min/mg | remaining at 2 min (in vitro [8]): 67% | remaining at 10 min (in vitro [8]): 50% | remaining at 20 min (in vitro [8]): 28% | remaining at 0.5 h (in vitro [8]): 16% | remaining at 0.75 h (in vitro [8]): 4.69% | remaining at 1 h (in vitro [8]): 5.45% | half-life (in vitro [9]): 12 h | remaining at 2 h (in vitro [9]): 82% | remaining at 4 h (in vitro [9]): 69% | remaining at 8 h (in vitro [9]): 57% | remaining at 16 h (in vitro [9]): 39% | remaining at 24 h (in vitro [9]): 28% | remaining at 48 h (in vitro [9]): 8% | remaining at 72 h (in vitro [9]): 2.65%
